Test results from article PMC10746753 (Pharmaceutical Research, 2023).

Test system: Caki-1 xenografts
Experiment: Anti-tumor efficacy study EFF-02
Assay type: in vivo, CD1 nu/nu mice
Settings: p.o., 6–7 weeks
Protocol: For all in vivo studies, human Caki-1 renal tumor cells (ATCC: HTB-46, RRID: CVCL_0234; 5 million in 100 µL PBS w/o Ca/Mg, Matrigel [1:1]) were subcutaneously inoculated into the right flank of female 5–6-week-old CD-1 nude mice provided by Charles River Laboratories (CRL), Sulzfeld, Germany. Tumor growth was observed over time by measuring tumor length (L) and width (W) twice weekly using calipers. Tumor volume was calculated using the formula LxW^2/2. Data were collected in Study Advantage™ (data collection system).
Anti-tumor efficacy study. […] PD analysis was not performed in this study.

Q: With O=C(NCc1cc(F)cc(F)c1)[C@@]1(O)CCN(c2ccc3[nH]ccc3c2)C1=O [M8891] as the compound, how does the minimal efficacious dose read?
A: 25 mg/kg BID
